The record followed here is patent publication US20090105562A1, “SYSTEM AND METHODS FOR SCREENING OR ANALYZING TARGETS” (TAIPEI VETERANS GENERAL HOSPITAL, priority 2007, published 2009).

Molecules are shown by their SMILES.

Common to all, as to format: cell-based, rat
Test [1] concerns LPS-treated NSCs. Kind of test: Cell survival rate of LPS-treated NSCs. On the procedure:
(§1) IM was purchased from Sigma Chem. Co., St Louis, Mo., USA. NSCs were seeded on 24-well plates at a density of 2×10^4 cells/well in medium, followed by methyl thiazol tetrazolium assay (MTT assay) (Sigma-Aldrich Co., St Louis, Mo., USA) for cell viability. NSCs were incubated with 0.25 mg/ml MTT for 4 hours at 37° C. and the reaction was terminated by the addition of 100% isopropanol. The amount of MTT fromazon product was determined using a microplate reader and the absorbance was measured at 560 nm (SpectraMax 250, Molecular Devices, Sunnyvale, Calif., USA). NSCs were exposed to 0, 1, 2, 5, 10, 20, 30, 40, 50, 100, 200, and 300 μM of IM for 1, 3, 5, and 7 days, respectively. The activities of caspases 8 and 3 (Medical and Biological Laboratories Co., Ltd., Nagoya, Japan), and the concentration of IL-6, IL-1 and TNF-α (Pharmingen, San Diego, Calif., USA) were determined by ELISA kits and quantified by reading at 490 nm (MRX; Dynatech Laboratories, Chantilly, Va., USA). Each individual sample was analyzed in triplicate.
Double-stranded, short interfering RNA (siRNA) of BDNF and Bcl-2 were chemically synthesized by Ambion Inc., Austin, Tex., USA). The sense and antisense sequences of BDNF were designed as follows: Sense: […]tt; Antisense: AGCTTAAAAAGAG CTGtt, starting from nucleotide 137 of the Bcl-2 sequence (accession number L14680). The sense and antisense sequences of Bcl-2 were designed as follows: Sense: GCGCUGGAUAUAACUUCUUtt; Antisense: AAGAAGUUAUAUC CAGCGCtt, starting from nucleotide 137 of the Bcl-2 sequence (accession number L14680). In this test, the siRNA control used was siRNA-Cy3 (QIAGEN; sense sequence: UUCUCCGAACGUGU CACGUdTdT-3′-Cy3 and the complement 5′-ACGUGACACGUUCGGAGAAdTdT-3′-Cy3) as an irrelevant control. The transfection of siRNA was performed using Lipofectamine 2000 (Invitrogen, Carlsbad, Calif., USA) according to the manufacturer's instructions. In brief, cells were harvested with 0.25% trypsin, 1 mM ethylenediaminetetraacetic acid (EDTA) in phosphate buffered saline (PBS) without Ca^2+ and Mg^2+, and plated in six-well plates at 10^5 per cm^2. […]

Test [2] relates to LPS-treated NSCs. Kind of test: LPS-induced apoptotic activity in NSCs, caspase 8 and 3 ELISA. Here is the method:
as §1
Double-stranded, short interfering RNA (siRNA) of BDNF and Bcl-2 were chemically synthesized by Ambion Inc., Austin, Tex., USA). The sense and antisense sequences of BDNF were designed as follows: Sense: […]tt; Antisense: AGCTTAAAAAGAG CTGtt, starting from nucleotide 137 of the Bcl-2 sequence (accession number L14680). The sense and antisense sequences of Bcl-2 were designed as follows: Sense: GCGCUGGAUAUAACUUCUUtt; Antisense: AAGAAGUUAUAUC CAGCGCtt, starting from nucleotide 137 of the Bcl-2 sequence (accession number L14680). In this test, the siRNA control used was siRNA-Cy3 (QIAGEN; sense sequence: UUCUCCGAACGUGU CACGUdTdT-3′-Cy3 and the complement 5′-ACGUGACACGUUCGGAGAAdTdT-3′-Cy3) as an irrelevant control. The transfection of siRNA was performed using Lipofectamine 2000 (Invitrogen, Carlsbad, Calif., USA) according to the manufacturer's instructions. In brief, cells were harvested with 0.25% trypsin, 1 mM ethylenediaminetetraacetic acid (EDTA) in phosphate buffered saline (PBS) without Ca^2+ and Mg^2+, and plated in six-well plates at 10^5 per cm^2. Then 3.5 μl siRNA (100 μM solution) was mixed with 125 μl serum-free culture medium for 5 minutes at room temperature. During this incubation period, 5 μl of Lipofectamine 2000 was diluted in 125 μl serum-free culture medium. These two mixtures were combined, mixed gently, and incubated for 20 minutes at room temperature for complex formation. This 250 μl of siRNA-Lipofectamine mixture was then added into the cells in a final volume of 2.5 ml per well. The transfected cells were cultured and fed daily with fresh medium until they were assayed.
On the technique in general: An ELISA detects its analyte on a solid surface through an enzyme-linked reagent.

The next test concerns NSCs. Briefly: Triple-staining immunofluorescent assay of NSC differentiation into serotoninergic neurons. Here is the method:
All animals used were treated in accordance with the Animal Care and Use Committee guideline at Taipei Veterans General Hospital. The protocol of the present study was also approved by the committee. Adult Sprague-Dawley (SD) rats (8 weeks old, 250 g) were anesthetized with intraperitoneal phenobarbital (Sigma, USA), and the location of their brains was mapped. Then, the brain was surgically separated from the hippocampus region. In brief, tissues from the hippocampus of adult rats were dissociated and incubated in Hank's balanced salt solution (HBSS) containing collagenase (78 units/ml) and hyaluronidase (38 units/ml) for 10 minutes at 37° C. The tissues were then mechanically dissected and placed in a trypsin solution (1.33 mg/ml) at 37° C. for another 10 minutes. Dissociated cells were then centrifuged at […] for 5 minutes. Then the enzyme solution was removed and replaced with serum-free culture media composed of Dulbecco Modified Eagle Medium (DMEM) and F-12 nutrient mixture (1:1) including insulin (25 μg/mL), transferrin (100 μg/mL), progesterone (20 nM), putrescine (60 μM), sodium selenite (30 nM), human recombinant epidermal growth factor (EGF) 20 ng/mL, and fibroblast growth factor-basic (bFGF) (20 ng/mL) (R&D Systems, Minneapolis, Minn., USA). Viable cells were counted by trypan blue exclusion and plated as 5000 cells/200 μL per well in 96-well plates (Corning Inc, Acton, Mass., USA) with no substrate pretreatment. The IM was purchased from Sigma Chem. Co., St Louis, Mo., USA. The 0.1% dimethyl sulfoxide (DMSO) (Sigma Chem. Co., St Louis, Mo., USA) was used as a vehicle control in all procedures and studies. For differentiation protocol, the neurosphere NSCs were plated on poly-L-ornithine-coated (15 μg/mL) glass coverslips in individual wells of 24-well plates (1.0 mL/well) in DMEM/F-12 medium containing 2% fetal calf serum (FCS) (Gibcol-BRL, Gaitherburg, Md., USA) and withdrawing EGF and bFGF At the time of NSCs seeding, vehicle control or IM treatment was concurrently added.
An avidin-biotin complex method was used for the immunohistochemical staining in the differentiated NSCs. Following washes with the 3% hydrogen peroxide, sodium azide and antigens were retrieved using a microwave. […] Immunoreactive signals were detected with a mixture of biotinylated rabbit anti-mouse IgG and Fluoresave (Calbiochem, La Jolla, Calif., USA) under confocal microscopy (Olympus, FV300). Each individual sample was analyzed in triplicate. […] The percentage of TUNEL-positive cells was measured by the average of 6 different areas as compared to the total cell number in the same section slide (under a×200 power field of a light microscope).

Setting [3] is: LPS (100 ng/ml) exposure, Day 7 IM-treated vs without IM, p<0.05.
[4] abbreviates: Day 7 culture of IM-treated vs non IM-treated NSCs, p<0.05.
The mark [5] stands for this setting: agent added, Day 7 culture of IM-treated NSCs.

For the molecule `CN(C)CCCN1c2ccccc2CCc2ccccc21` [IM, imipramine], in the test on LPS-treated NSCs [1] (vs only LPS-treated NSCs, LPS 100 ng/ml), the “cell survival rate in LPS-treated NSCs” value is reported as “significantly increases”. For the same molecule, in the test with LPS-treated NSCs [2] (setting [3]), the “apoptotic activity of caspase 3” value is “significantly decreased” and the “apoptotic activity of caspase 8” value is “significantly decreased”. For the same molecule, in the test on NSCs (setting [4]), the “percentage of MAP-2-positive cells” value was “significantly increased” and the “percentage of serotonin (5-HT)-positive cells” value is listed as “significantly increased”.
Turning to `N#CC(=C(/N)Sc1ccccc1N)/C(C#N)=C(\N)Sc1ccccc1N` [U0126], in the test on LPS-treated NSCs [1] (after added treatment with the agent), the “cell viability in LPS-treated NSCs with IM” value is “dramatically decreased”. The “apoptotic activities (caspase 8, caspase 3 and TUNEL assays) in LPS- and IM-treated NSCs” value in the test with LPS-treated NSCs [2] (agent added to LPS- and IM-treated NSCs, U0126 40 μM) is listed as “significantly enhanced”. Further, in the test with NSCs (setting [5]), the “percentage of MAP-2-positive cells in IM-treated NSCs” value is reported as “significantly decrease” and the “percentage of serotonin (5-HT)-positive cells in IM-treated NSCs” value is on record as “significantly decrease”.
